Laboratory results published in patent publication US20260347373A1, “HETEROCYCLIC COMPOUNDS, COMPOSITIONS THEREOF, AND METHODS OF TREATMENT THEREWITH” (BeOne Medicines I GmbH, priority 2023, published 2026).
Where two headings read alike, the source gives them in different places.

Tests used:
WT KRAS = WT KRAS (Homo sapiens, UniProt P01116); test: KRAS WT Probe Displacement Assay (TR-FRET, GDP-loaded); assay type: binding
Description: (§1) The synthetic routes of probe 1 and 2, which have been disclosed in PCT/CN2022/070676, are hereby incorporated herein.

KRAS G12D = KRAS G12D (Homo sapiens, UniProt P01116, G12D); test: KRAS G12D Probe Displacement Assay (TR-FRET, GDP-loaded); assay type: binding
Description: as §1

[1] = KRAS WT, read-out: KRAS^WT Probe Displacement Assay IC50
[2] = KRAS G12D, read-out: KRAS^G12D Probe Displacement Assay IC50
[3] = KRAS^WT Probe Displacement Assay IC50, KRAS WT
[4] = KRAS^G12D Probe Displacement Assay IC50, KRAS G12D

Chain of KRAS G12D (P01116 1-188 isoform P01116-2 G12D): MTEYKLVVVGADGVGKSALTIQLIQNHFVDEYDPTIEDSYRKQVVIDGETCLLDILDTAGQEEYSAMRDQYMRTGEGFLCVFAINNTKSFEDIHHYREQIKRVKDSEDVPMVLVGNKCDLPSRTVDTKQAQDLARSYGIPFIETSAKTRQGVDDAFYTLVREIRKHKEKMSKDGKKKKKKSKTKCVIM
Chain of WT KRAS (P01116 1-188 isoform P01116-2): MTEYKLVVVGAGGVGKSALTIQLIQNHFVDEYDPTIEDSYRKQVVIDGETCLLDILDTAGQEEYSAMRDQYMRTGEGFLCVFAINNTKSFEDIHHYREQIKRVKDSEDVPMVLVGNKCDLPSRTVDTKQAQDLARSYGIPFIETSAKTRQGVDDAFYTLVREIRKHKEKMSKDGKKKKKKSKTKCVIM

| Structure (SMILES) | IC50 (WT KRAS; [1]) | IC50 (KRAS G12D; [2]) | IC50 (WT KRAS; [3]) | IC50 (KRAS G12D; [4]) |
| --- | --- | --- | --- | --- |
| Cc1cc(N)cc(-c2nc3c4c(nc(OCC5(CN6CCC7(CC6)CC(F)(F)C7)CC5)nc4c2F)N2C[C@H]4CC[C@H](N4)[C@H]2CCO3)c1C(F)(F)F [Example 173, 3-((6aR,7S,10R)-13-((1-((2,2-difluoro-7-azaspiro[3.5]nonan-7-yl)methyl)cyclopropyl)methoxy)-1-fluoro-5,6,6a,7,8,9,10,11-octahydro-4-oxa-3,11a,12,14,15-pentaaza[7,10]methanocyclohepta[4,5]cycloocta[1,2,3-de]naphthalen-2-yl)-5-methyl-4-(trifluoromethyl)aniline] | 3 to 1000 nM | < 0.3 nM |  |  |
| Cc1cc(N)cc(-c2nc3c4c(nc(OCC5(CN6CCC(C#N)CC6)CC5)nc4c2F)N2C[C@H]4CC[C@H](N4)[C@H]2CCO3)c1C(F)(F)F [Example 165, 1-((1-((((6aR,7S,10R)-2-(5-amino-3-methyl-2-(trifluoromethyl)phenyl)-1-fluoro-5,6,6a,7,8,9,10,11-octahydro-4-oxa-3,11a,12,14,15-pentaaza-7,10-methanocyclohepta[4,5]cycloocta[1,2,3-de]naphthalen-13-yl)oxy)methyl)cyclopropyl)methyl)piperidine-4-carbonitrile] | 0.3 to 3 nM | < 0.3 nM |  |  |
| Cc1cc(N)cc(-c2nc3c4c(nc(OCC5(CN6CCC[C@@H]6C)CC5)nc4c2F)N2C[C@H]4CC[C@H](N4)[C@H]2CCO3)c1C(F)(F)F [Example 123, 3-((6aR,7S,10R)-1-fluoro-13-((1-(((S)-2-methylpyrrolidin-1-yl)methyl)cyclopropyl)methoxy)-5,6,6a, 7,8,9,10,11-octahydro-4-oxa-3,11a,12,14,15-pentaaza-7,10-methanocyclohepta [4,5]cycloocta [1,2,3-de]naphthalen-2-yl)-5-methyl-4-(trifluoromethyl)aniline] | 3 to 1000 nM | < 0.3 nM |  |  |
| Cc1cc(N)cc(-c2nc3c4c(nc(O[C@H]5C[C@@H]6C[C@H]5CN(C)C6)nc4c2F)N2C[C@H]4CC[C@H](N4)[C@H]2CCO3)c1C(F)(F)F [Example 198, 3-((6aR,7S,10R)-1-fluoro-13-(((1S,5S,6S)-3-methyl-3-azabicyclo[3.2.1]octan-6-yl)oxy)-5,6,6a,7,8,9,10,11-octahydro-4-oxa-3,11a,12,14,15-pentaaza-7,10-methanocyclohepta[4,5]cycloocta[1,2,3-de]naphthalen-2-yl)-5-methyl-4-(trifluoromethyl)aniline] | 3 to 1000 nM | < 0.3 nM |  |  |
| C=C1CN2C[C@H]3C[C@H]3[C@]2(COc2nc3c4c(nc(-c5cc(N)cc(C)c5C(F)(F)F)c(F)c4n2)OCC[C@@H]2[C@@H]4CC[C@H](CN32)N4)C1 [Example 212, 3-((6aR,7S,10R)-1-fluoro-13-(((1aS,6bR)-5-methylenehexahydrocyclopropa[a]pyrrolizin-6a(4H)-yl)methoxy)-5,6,6a,7,8,9,10,11-octahydro-4-oxa-3,11a,12,14,15-pentaaza-7,10-methanocyclohepta[4,5]cycloocta[1,2,3-de]naphthalen-2-yl)-5-methyl-4-(trifluoromethyl)aniline] | 3 to 1000 nM | < 0.3 nM |  |  |
| Cc1cc(N)cc(-c2nc3c4c(nc(OCC5(CN6CCC=C(F)C6)CC5)nc4c2F)N2C[C@H]4CC[C@H](N4)[C@H]2CCO3)c1C(F)(F)F [Example 179, 3-((6aR,7S,10R)-1-fluoro-13-((1-((5-fluoro-3,6-dihydropyridin-1(2H)-yl)methyl)cyclopropyl)methoxy)-5,6,6a,7,8,9,10,11-octahydro-4-oxa-3,11a,12,14,15-pentaaza-7,10-methanocyclohepta[4,5]cycloocta[1,2,3-de]naphthalen-2-yl)-5-methyl-4-(trifluoromethyl)aniline] | 3 to 1000 nM | < 0.3 nM |  |  |
| C=C1CN2C[C@H](F)C[C@@]2(COc2nc3c4c(nc(-c5cc(N)cc(C)c5C(F)(F)F)c(F)c4n2)OCC[C@@H]2[C@@H]4CC[C@H](CN32)N4)C1 [Example 208, 3-((6aR,7S,10R)-1-fluoro-13-(((2R,7aR)-2-fluoro-6-methylenetetrahydro-1H-pyrrolizin-7a(5H)-yl)methoxy)-5,6,6a,7,8,9,10,11-octahydro-4-oxa-3,11a,12,14,15-pentaaza-7,10-methanocyclohepta[4,5]cycloocta[1,2,3-de]naphthalen-2-yl)-5-methyl-4-(trifluoromethyl)aniline] | 0.3 to 3 nM | < 0.3 nM |  |  |
| Cc1cc(N)cc(-c2nc3c4c(nc(OCC5(CN6CCC(=C(F)F)CC6)CC5)nc4c2F)N2C[C@H]4CC[C@H](N4)[C@H]2CCO3)c1C(F)(F)F [Example 146, 3-((6aR,7S,10R)-13-((1-((4-(difluoromethylene)piperidin-1-yl)methyl)cyclopropyl)methoxy)-1-fluoro-5,6,6a,7,8,9,10,11-octahydro-4-oxa-3,11a,12,14,15-pentaaza-7,10-methano-cyclohepta[4,5]cycloocta [1,2,3-de]naphthalen-2-yl)-5-methyl-4-(trifluoromethyl) aniline] |  |  | 0.3 to 3 nM | < 0.3 nM |
| Cc1cc(N)cc(-c2nc3c4c(nc(OCC5(C)CN(C)CC/C5=C\F)nc4c2F)N2C[C@H]4CC[C@H](N4)[C@H]2CCO3)c1C(F)(F)F (single isomer, unassigned) [Example 236] | 3 to 1000 nM | < 0.3 nM |  |  |
| Cc1cc(N)cc(-c2nc3c4c(nc(OCC5(CN6CCCC6)CC5)nc4c2F)N2C[C@H]4CC[C@H](N4)[C@H]2CCO3)c1C(F)(F)F [Example 77, 3-((6aR,7S,10R)-1-fluoro-13-((1-(pyrrolidin-1-ylmethyl)cyclopropyl)methoxy)-5,6,6a,7,8,9,10,11-octahydro-4-oxa-3,11a,12,14,15-pentaaza-7,10-methanocyclohepta[4,5]cycloocta[1,2,3-de]naphthalen-2-yl)-5-methyl-4-(trifluoromethyl)aniline] | 3 to 1000 nM | < 0.3 nM |  |  |
| Cc1cc(N)cc(-c2nc3c4c(nc(OCC5(CN6CC=CC6C6(O)CC6)CC5)nc4c2F)N2C[C@H]4CC[C@H](N4)[C@H]2CCO3)c1C(F)(F)F (stereo partly drawn) [Example 162, 1-(1-((1-((((6aR,7S,10R)-2-(5-amino-3-methyl-2-(trifluoromethyl)phenyl)-1-fluoro-5,6,6a,7,8,9,10,11-octahydro-4-oxa-3,11a,12,14,15-pentaaza-7,10-methanocyclohepta[4,5]cycloocta[1,2,3-de]naphthalen-13-yl)oxy)methyl)cyclopropyl)methyl)-2,5-dihydro-1H-pyrrol-2-yl)cyclopropan-1-ol] | 3 to 1000 nM | < 0.3 nM |  |  |
| Cc1cc(N)cc(-c2nc3c4c(nc(O[C@@H](C)[C@@H]5CCCN5C5CCOCC5)nc4c2F)N2C[C@H]4CC[C@H](N4)[C@H]2CCO3)c1C(F)(F)F [Example 226, 3-((6aR,7S,10R)-1-fluoro-13-((S)-1-((S)-1-(tetrahydro-2H-pyran-4-yl)pyrrolidin-2-yl)ethoxy)-5,6,6a,7,8,9,10,11-octahydro-4-oxa-3,11a,12,14,15-pentaaza-7,10-methanocyclohepta[4,5]cycloocta[1,2,3-de]naphthalen-2-yl)-5-methyl-4-(trifluoromethyl)aniline] | 3 to 1000 nM | < 0.3 nM |  |  |
| Cc1cc(N)cc(-c2nc3c4c(nc(OCC5(CN6C[C@H]7COC[C@H]7C6)CC5)nc4c2F)N2C[C@H]4CC[C@H](N4)[C@H]2CCO3)c1C(F)(F)F [Example 100, 3-((6aR,7S,10R)-1-fluoro-13-((1-(((3aR,6aS)-tetrahydro-1H-furo[3,4-c]pyrrol-5(3H)-yl)methyl)cyclopropyl)methoxy)-5,6,6a,7,8,9,10,11-octahydro-4-oxa-3,11a,12,14,15-pentaaza-7,10-methanocyclohepta [4,5]cycloocta [1,2,3-de]naphthalen-2-yl)-5-methyl-4-(trifluoromethyl) aniline] |  |  | 0.3 to 3 nM | < 0.3 nM |
| Cc1cc(N)cc(-c2nc3c4c(nc(OCC56C[C@@H](F)CN5C[C@H](F)C6)nc4c2F)N2C[C@H]4CC[C@H](N4)[C@H]2CCO3)c1C(F)(F)F [Example 36, 3-((6aR,7S,10R)-13-(((2R,6R)-2,6-difluorotetrahydro-1H-pyrrolizin-7a(5H)-yl)methoxy)-1-fluoro-5,6,6a,7,8,9,10,11-octahydro-4-oxa-3,11a,12,14,15-pentaaza-7,10-methanocyclohepta[4,5]cycloocta [1,2,3-de]naphthalen-2-yl)-5-methyl-4-(trifluoromethyl)aniline] | 3 to 1000 nM | < 0.3 nM |  |  |
| Cc1cc(N)cc(-c2nc3c4c(nc(OCC5(CN6CCSCC6)CC5)nc4c2F)N2C[C@H]4CC[C@H](N4)[C@H]2CCO3)c1C(F)(F)F [Example 159, 3-((6aR,7S,10R)-1-fluoro-13-((1-(thiomorpholinomethyl)cyclopropyl)methoxy)-5,6,6a,7,8,9,10,11-octahydro-4-oxa-3,11a,12,14,15-pentaaza-7,10-methanocyclohepta[4,5]cycloocta[1,2,3-de]naphthalen-2-yl)-5-methyl-4-(trifluoromethyl)aniline] | 0.3 to 3 nM | < 0.3 nM |  |  |
| [2H]C([2H])([2H])c1cc(N)cc(-c2nc3c4c(nc(OCC56C[C@@H](F)CN5C[C@H](F)C6)nc4c2F)N2C[C@H]4CC[C@H](N4)[C@H]2CCO3)c1C(F)(F)F [Example 73, 3-((6aR,7S,10R)-13-(((2R,6R)-2,6-difluorotetrahydro-1H-pyrrolizin-7a(5H)-yl)methoxy)-1-fluoro-5,6,6a,7,8,9,10,11-octahydro-4-oxa-3,11a,12,14,15-pentaaza-7,10-methanocyclohepta[4,5]cycloocta [1,2,3-de]naphthalen-2-yl)-5-(methyl-d3)-4-(trifluoromethyl)aniline] | 3 to 1000 nM | < 0.3 nM |  |  |
